How the values were obtained:
[1] = target: His-tagged recombinant human TrkA (Homo sapiens (Human), UniProt P04629); experiment: TrkA LanthaScreen Eu Kinase Binding Assay; conditions: averaged IC50, TrkA binding assay of Example A; read-out: TrkA Enzyme IC50
Description: TrkA binding activity was determined in a TrkA LanthaScreen™ Eu Kinase Binding Assay. 5 nM His-tagged recombinant human TrkA (6HIS tagged cytoplasmic domain from Invitrogen, Catalog No. PV3144) was incubated with 4 nM Alexa-Fluor® Tracer 236 (Invitrogen Cat. No. PV5592), 2 nM biotinylated anti-His (Invitrogen Cat. No. PV6090), and 2 nM europium-labeled Streptavidin (Invitrogen Cat. No. PV5899), in buffer (25 mM MOPS, pH 7.5, 5 mM MgCl2, 0.005% Triton X-100). Three fold serial dilutions of compounds of the invention in DMSO were added to a final percentage of 2% DMSO. After 60-minute incubation at 22° C., the reaction was measured using the EnVision mutlimode plate reader (PerkinElmer) via TR-FRET dual wavelength detection at […]. The percent of control was calculated using a ratiometric emission factor. The IC50 values were determined by fitting a four parameter model to the percent of control data.
Table A provides averaged IC50 values for compounds of the invention when tested in the assay of Example A, where A represents an averaged IC50 value <100 nM.

off-target kinases = experiment: KinaseProfiler full kinase panel (overall); type: biochemical; conditions: 10 μM; for activity against off-target kinases: full kinase panel; for selectivity for inhibiting TrkA versus other kinases in the panel: panel of about 230 kinases
Description: Two representative compounds (Example 2, 14) of the invention were tested for off-target kinase activity at a concentration of 10 μM by Millipore, Inc. in their KinaseProfiler™ service against all the kinases available in their full kinase panel. These compounds were run in duplicate at a concentration of ATP near the Km for each individual kinase according to Millipore's specifications. The results are shown in Table B. Data are reported as percent of control (POC) and are the average of the two replicates.
Such a drug profile would represent a safer approach to treating pain, inflammation, cancer and certain skin diseases than has been previously reported.

Sequence of His-tagged recombinant human TrkA (P04629 440-796): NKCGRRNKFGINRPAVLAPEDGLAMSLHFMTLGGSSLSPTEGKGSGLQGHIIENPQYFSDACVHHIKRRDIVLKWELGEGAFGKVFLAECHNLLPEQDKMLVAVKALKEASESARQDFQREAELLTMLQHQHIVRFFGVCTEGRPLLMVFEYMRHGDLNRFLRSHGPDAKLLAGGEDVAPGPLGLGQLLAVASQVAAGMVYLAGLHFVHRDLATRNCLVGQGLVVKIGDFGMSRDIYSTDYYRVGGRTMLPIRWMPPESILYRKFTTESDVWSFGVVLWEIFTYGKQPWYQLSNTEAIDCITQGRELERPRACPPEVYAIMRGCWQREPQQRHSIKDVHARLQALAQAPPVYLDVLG

## COCCN1C[C@@H](NC(=O)Nc2c(C)c(-c3ccc(=O)n(C)c3)nn2-c2ccccc2)[C@H](c2ccc(F)c(Cl)c2)C1 (relative stereo) [Example 22, 1-(trans-4-(3-chloro-4-fluorophenyl)-1-(2-methoxyethyl)pyrrolidin-3-yl)-3-(4-methyl-3-(1-methyl-6-oxo-1,6-di hydropyridin-3-yl)-1-phenyl-1H-pyrazol-5-yl)urea]
[1]
  IC50: < 100 nM

## COCCN1C[C@@H](NC(=O)Nc2c(C)c(-c3ccc(=O)n(C)c3)nn2-c2ccccc2)[C@H](c2ccc(Cl)c(F)c2)C1 (relative stereo) [Example 23, 1-(trans-4-(4-chloro-3-fluorophenyl)-1-(2-methoxyethyl)pyrrolidin-3-yl)-3-(4-methyl-3-(1-methyl-6-oxo-1,6-dihydropyridin-3-yl)-1-phenyl-1H-pyrazol-5-yl)urea]
[1]
  IC50: < 100 nM

## COCCN1C[C@@H](NC(=O)Nc2c(C)c(-c3ccc(=O)n(C)c3)nn2-c2ccccc2)[C@H](c2cc(F)cc(Cl)c2)C1 (relative stereo) [Example 24, 1-(trans-4-(3-chloro-5-fluorophenyl)-1-(2-methoxyethyl)pyrrolidin-3-yl)-3-(4-methyl-3-(1-methyl-6-oxo-1,6-di hydropyridin-3-yl)-1-phenyl-1H-pyrazol-5-yl)urea]
[1]
  IC50: < 100 nM

## COCCN1C[C@@H](NC(=O)Nc2c(C)c(-c3ccc(=O)n(C)c3)nn2-c2ccccc2)[C@H](c2cccc(Cl)c2)C1 (relative stereo) [Example 25, 1-(trans-4-(3-chlorophenyl)-1-(2-methoxyethyl)pyrrolidin-3-yl)-3-(4-methyl-3-(1-methyl-6-oxo-1,6-di hydropyridin-3-yl)-1-phenyl-1H-pyrazol-5-yl)urea]
[1]
  IC50: < 100 nM

## COCCN1C[C@@H](NC(=O)Nc2c(C)c(-c3ccnc(C)c3)nn2-c2ccccc2)[C@H](c2ccc(F)c(F)c2)C1 [Example 2, 1-((3S,4R)-4-(3,4-difluorophenyl)-1-(2-methoxyethyl)pyrrolidin-3-yl)-3-(4-methyl-3-(2-methylpyridin-4-yl)-1-phenyl-1H-pyrazol-5-yl)urea]
off-target kinases
  activity against off-target kinases: largely inactive
  selectivity for inhibiting TrkA versus other kinases in the panel: remarkable and unexpected selectivity

## COCCN1C[C@@H](NC(=O)Nc2c(C)c(-c3cnc(C)nc3)nn2-c2ccccc2)[C@H](c2cc(F)cc(F)c2)C1 [Example 14, 1-((3S,4R)-4-(3,5-difluorophenyl)-1-(2-methoxyethyl)pyrrolidin-3-yl)-3-(4-methyl-3-(2-methylpyrimidin-5-yl)-1-phenyl-1H-pyrazol-5-yl)urea]
off-target kinases
  activity against off-target kinases: largely inactive
  selectivity for inhibiting TrkA versus other kinases in the panel: remarkable and unexpected selectivity
